Results: PMC5410595, “In Vitro and In Silico Antidiabetic and Antimicrobial Evaluation of Constituents from Kickxia ramosissima (Nanorrhinum ramosissimum)” (Frontiers in Pharmacology, 2017)
“Also recorded” adds a separate entry of the source. Where two headings read alike, the source gives them in different places.

How the values were obtained:
[1] = system: Trypanosoma cruzi, Tulahuen LacZ, clone C4; assay: Antimicrobial screening panel: Trypanosoma cruzi; assay type: cell-based
Procedure: (§1) Fractions and isolated compounds were evaluated for antimicrobial activity in an integrated screening panel, also including the human MRC-5 cell line to assess selectivity, as reported before ([Cos et al., 2006]; [Mesia et al., 2008]; [Baldé et al., 2010]; [Amin et al., 2016]).

Staphylococcus aureus = assay: Antimicrobial screening panel: Staphylococcus aureus; assay type: cell-based
Procedure: as §1

15-LOX from soybean = target: T1, 15-LOX from soybean (Glycine max, UniProt P08170); assay: 15-lipoxygenase inhibition assay; assay type: biochemical
T1 sequence (P08170 1-839): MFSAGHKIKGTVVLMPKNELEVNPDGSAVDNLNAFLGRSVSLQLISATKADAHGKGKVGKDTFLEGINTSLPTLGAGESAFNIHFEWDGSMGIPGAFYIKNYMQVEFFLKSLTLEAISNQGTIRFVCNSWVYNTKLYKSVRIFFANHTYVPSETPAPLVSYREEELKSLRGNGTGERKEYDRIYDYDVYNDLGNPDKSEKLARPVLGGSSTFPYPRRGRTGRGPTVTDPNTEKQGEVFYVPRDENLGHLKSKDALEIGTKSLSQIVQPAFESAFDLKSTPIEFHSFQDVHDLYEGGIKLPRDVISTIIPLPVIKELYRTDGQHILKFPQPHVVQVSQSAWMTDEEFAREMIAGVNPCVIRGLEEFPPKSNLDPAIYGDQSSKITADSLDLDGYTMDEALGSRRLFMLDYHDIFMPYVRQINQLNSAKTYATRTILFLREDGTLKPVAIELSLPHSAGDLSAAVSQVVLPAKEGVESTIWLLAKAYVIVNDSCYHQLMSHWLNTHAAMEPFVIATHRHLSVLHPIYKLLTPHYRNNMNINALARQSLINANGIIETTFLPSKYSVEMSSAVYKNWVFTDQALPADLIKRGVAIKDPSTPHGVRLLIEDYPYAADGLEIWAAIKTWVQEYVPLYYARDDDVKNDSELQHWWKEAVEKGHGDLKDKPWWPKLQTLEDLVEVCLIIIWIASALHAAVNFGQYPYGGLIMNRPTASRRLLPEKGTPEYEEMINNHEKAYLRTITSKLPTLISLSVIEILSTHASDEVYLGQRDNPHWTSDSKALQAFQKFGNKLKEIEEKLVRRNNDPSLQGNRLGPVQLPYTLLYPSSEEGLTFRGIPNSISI
Procedure: The soybean LOX assay is used as an indication of anti-inflammatory activity ([Muller, 1994]), and therefore during the present investigation, 15-LOX from soybean was used for peroxidation of linoleic acid, and inhibition was measured as described previously with slight modifications ([Malterud and Rydland, 2000]). Briefly, 12.5 μL (2–0.062 mM) of sample was dissolved in DMSO, and added to 487.5 μL of enzyme solution (200 U/mL). The mixture was incubated at room temperature for 5 min. Absorbance was recorded immediately after the addition of 500 μL of substrate (250 μM linoleic acid in 0.2 M borate buffer, pH 9) every minute up to 5 min at 234 nm.
% inhibition of enzyme activity was calculated as,
%inhibition of enzyme activity=([ΔA1/Δt]−[ΔA2/Δt])/(ΔA1/Δt)×100
where ΔA1/Δt and ΔA2/Δt are the increase rate in absorbance at 234 nm for sample without test substance and with test substance, respectively.

Plasmodium falciparum K1 = assay: Antimicrobial screening panel: Plasmodium falciparum; assay type: cell-based
Procedure: as §1

[2] = system: MRC-5, human fetal lung fibroblasts
Procedure: as §1

[3] = system: formation of AGEs (BSA-glucose); assay: BSA-glucose antiglycation assay; assay type: biochemical; settings: for IC50: read-out: Protein glycation BSA-Glucose IC50; for Protein glycation BSA-Glucose % inhibition: isolated constituents, at the highest test concentration of 3 mM
Procedure: The BSA-glucose and BSA-MGO antiglycation assays were performed as reported before ([Amin et al., 2016]). The test protocol is attached as Supplementary Material ([Amin et al., 2016]).
28 Antiglycation assay (BSA-Glucose assay)
29 In the BSA-glucose assay the prevention of AGEs formation is investigated by determining the
30 fluorescence of the complex formed after incubation of a sugar (glucose) with protein (BSA) in
31 the presence or absence of test compounds. The antiglycation assay was performed according to
32 the method developed by Matsuura et al. (2002) with minor modifications. […]
37 DMSO. The mixtures were incubated at 60°C for 48 h. After incubation, the reaction mixture
38 was allowed to cool down at room temperature. Then 100 µL reaction mixture was transferred
39 to a new plastic tube (1.5 mL) and the reaction was stopped by adding 10 μL of 100% (w/v)
40 trichloroacetic acid (TCA) and to precipitate proteins. The TCA-added mixture was kept at 4°C
41 for 10 min, followed by centrifugation (14000 rpm, 4 °C, 4 min). The supernatant containing
42 unreacted D-glucose, test sample and interfering substances was discarded, whereas the
44 8.1 mM Na2HPO4, 2.68 mM KCl, 1.47 mM KH2PO4, […]). The change in fluorescence
46 of AGEs was monitored by spectrofluorometry (Tecan™ Infinite M200, Giessen, The
47 Netherlands). In order to eliminate interference by autofluorescence of the test compounds, a
48 parallel incubation of test substance with BSA at 60°C without D-glucose was performed for all
50 final concentration) were used as reference compounds.
51 The AGEs inhibition was calculated as
55 where F is the fluorescence intensity.
56 calculated using Sigma plot® 13.0.

[4] = at the highest test concentration

| SMILES | IC50 [3] [µM] | 15-LOX assay % inhibition (15-LOX from soybean; [4]) [%] | Protein glycation BSA-Glucose % inhibition [3] | further results |
| --- | --- | --- | --- | --- |
| COc1ccc(-c2cc(=O)c3c(O)c(OC)c(O)cc3o2)cc1 [Compound 5, Pectolinarigenin] | 790 |  |  | IC50 [1]: 32 µM; IC50 (Staphylococcus aureus): 49.8 µM; 15-LOX assay % inhibition (15-LOX from soybean): 46%; IC50 (Plasmodium falciparum K1): 41.8 µM; cytotoxicity against MRC-5 cells [2]: not cytotoxic |
| COc1ccc(-c2cc(=O)c3c(O)c(OC)c(O[C@@H]4O[C@H](CO[C@@H]5O[C@@H](C)[C@H](O)[C@@H](O)[C@H]5O)[C@@H](O)[C@H](O)[C@H]4O)cc3o2)cc1 [Compound 6, Pectolinarin] | 2290 |  |  | IC50 (15-LOX from soybean; read-out: 15-LOX IC50): 250 µM |
| COC(=O)c1ccc(O)cc1 [Compound 7, 4-Hydroxy benzoic acid methyl ester] |  | 30 | did not present any inhibition; also recorded: no activity |  |
| CC1(O)CCC2C(C(=O)O)=COC(OC3OC(CO)C(O)C(O)C3O)C21 (stereo not shown) [Compound 2, Mussaenosidic acid] |  |  | 35% | IC50 (15-LOX from soybean): 220 µM |
| COC(=O)C1=COC(OC2OC(CO)C(O)C(O)C2O)C2C1CCC2(C)O (stereo not shown) [Compound 3, Mussaenoside] |  | 37 | 28% |  |
| CO[C@H]1C[C@@]2(O)[C@H](O)[C@@H](O)[C@](C)(OC)[C@H]2[C@@H](OC)O1 [Compound 1, Kickxiasine] |  | 30 | 26% |  |
